Test results taken from patent US3997403A, “Antibiotic G-418 and the production thereof” (Schering Corporation, priority 1975, dated 1976).

Test system: E. Histolytica
Experiment: Oral activity against experimental cecal E. Histolytica infections in rats
Format: in vivo, male Royal Hart rats
Settings: for A.D.I. (average degree of infection): scale 0 to 4, controls averaged 2.2
Excerpt: Table VII and Table VIII set forth in vivo test results which illustrate the antiprotozoal activity of Antibiotic G-418. The host for the tests were recently weaned male Royal Hart rats (3-4 weeks old) weighing about 50-70 g. The test procedure is a modification of one described by R. J. Schnitzer on pages 355-443 in Experimental Chemotherapy, Vol. 1, Academic Press, New York (1963).
*A.D.I. -- defined as the average degree of infection based upon gross
observations of pathological changes in the cecum and microscopic
observations of the number of amoebae found. These observations are
recorded on a scale of from zero to four, zero representing a
substantially normal cecum. Untreated but infected controls range from
about two to four. In the data set forth the controls averaged 2.2.

## NC[C@@H]1O[C@H](O[C@H]2[C@@H](O)[C@H](O[C@@H]3[C@@H](O)[C@H](N)C[C@H](N)[C@H]3O[C@H]3O[C@H](CO)[C@@H](O)[C@H](O)[C@H]3N)O[C@@H]2CO)[C@H](N)[C@@H](O)[C@@H]1O [Paromomycin]
Oral 3.5 mg/kg/day, 3 days
  Parasitological Cure Negative/Total: 1/7
  A.D.I. (average degree of infection): 1.9
Oral 3.5 mg/kg/day, 6 days
  Parasitological Cure Negative/Total: 1/6
  A.D.I. (average degree of infection): 1.5
Oral 6.5 mg/kg/day, 1 day
  Parasitological Cure Negative/Total: 0/4
  A.D.I. (average degree of infection): 1.0
Oral 6.5 mg/kg/day, 3 days
  Parasitological Cure Negative/Total: 1/5
  A.D.I. (average degree of infection): 1.0
Oral 6.5 mg/kg/day, 6 days
  Parasitological Cure Negative/Total: 2/4
  A.D.I. (average degree of infection): 1.3
Oral 10 mg/kg/day, 1 day
  Parasitological Cure Negative/Total: 0/7
  A.D.I. (average degree of infection): 2.1
Oral 10 mg/kg/day, 3 days
  Parasitological Cure Negative/Total: 2/6
  A.D.I. (average degree of infection): 1.0
Oral 12 mg/kg/day, 6 days
  Parasitological Cure Negative/Total: 4/8
  A.D.I. (average degree of infection): 0.8
Oral 25 mg/kg/day, 6 days
  Parasitological Cure Negative/Total: 6/7
  A.D.I. (average degree of infection): 0
